Measured values reported in ChEMBL document CHEMBL4184100, “Discovery of 2-arylquinazoline derivatives as a new class of ASK1 inhibitors” (Bioorg Med Chem Lett, 2018).
Values after ≈ are worked out from the molar mass of the structure shown.

Assays:
[1] = target: T1, Mitogen-activated protein kinase kinase kinase 5 (Homo sapiens, UniProt Q99683); assay: Inhibition of stress-activated full length recombinant human N-terminal GST-tagged ASK1 expressed in baculovirus expression system using MKK6 as substrate pretreated for 10 mins followed by substrate addition by Alphascreen assay
T1 sequence (Q99683 whole entry): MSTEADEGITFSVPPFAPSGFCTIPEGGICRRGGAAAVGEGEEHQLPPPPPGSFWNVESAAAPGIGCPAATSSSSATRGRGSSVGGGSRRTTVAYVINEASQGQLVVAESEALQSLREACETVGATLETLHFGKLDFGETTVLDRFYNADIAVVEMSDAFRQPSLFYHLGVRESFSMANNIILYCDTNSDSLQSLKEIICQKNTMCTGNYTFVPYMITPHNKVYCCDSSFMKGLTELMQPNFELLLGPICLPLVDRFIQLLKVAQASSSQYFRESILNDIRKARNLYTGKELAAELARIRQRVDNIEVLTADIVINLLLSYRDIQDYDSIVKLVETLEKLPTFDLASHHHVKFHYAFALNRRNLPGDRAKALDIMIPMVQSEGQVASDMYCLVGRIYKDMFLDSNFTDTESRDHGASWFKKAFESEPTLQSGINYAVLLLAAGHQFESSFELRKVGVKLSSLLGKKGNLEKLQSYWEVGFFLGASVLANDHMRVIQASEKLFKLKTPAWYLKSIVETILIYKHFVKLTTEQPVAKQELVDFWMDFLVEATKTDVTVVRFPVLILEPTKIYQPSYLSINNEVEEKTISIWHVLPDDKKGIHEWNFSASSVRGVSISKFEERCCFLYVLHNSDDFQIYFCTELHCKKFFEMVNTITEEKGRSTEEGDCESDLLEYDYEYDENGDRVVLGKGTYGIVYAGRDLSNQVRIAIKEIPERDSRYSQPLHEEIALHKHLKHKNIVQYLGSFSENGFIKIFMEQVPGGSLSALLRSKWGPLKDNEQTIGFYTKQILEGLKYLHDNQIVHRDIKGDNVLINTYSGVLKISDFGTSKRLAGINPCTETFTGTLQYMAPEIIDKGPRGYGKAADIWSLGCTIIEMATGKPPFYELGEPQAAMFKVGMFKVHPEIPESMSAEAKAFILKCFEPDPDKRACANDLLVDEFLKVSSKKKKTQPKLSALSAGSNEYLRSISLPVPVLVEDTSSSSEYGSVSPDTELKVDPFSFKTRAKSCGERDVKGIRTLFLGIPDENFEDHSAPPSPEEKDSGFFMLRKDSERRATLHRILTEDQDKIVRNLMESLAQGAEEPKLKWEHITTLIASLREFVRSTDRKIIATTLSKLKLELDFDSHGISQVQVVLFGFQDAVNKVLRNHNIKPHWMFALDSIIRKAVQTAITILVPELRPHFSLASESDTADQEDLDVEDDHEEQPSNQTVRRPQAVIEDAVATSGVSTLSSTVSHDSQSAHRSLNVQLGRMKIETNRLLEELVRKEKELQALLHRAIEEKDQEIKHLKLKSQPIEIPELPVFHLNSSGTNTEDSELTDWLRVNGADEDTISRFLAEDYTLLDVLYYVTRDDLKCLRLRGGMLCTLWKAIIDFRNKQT

[2] = Stability in rat liver microsomes; format: ADME, microsome; conditions: read-out: Stability
CYP2D6 = CYP2D6 (Homo sapiens, UniProt P10635); assay: Inhibition of CYP2D6 (unknown origin) at 10 uM relative to control; format: ADME
Chain of CYP2D6 (P10635 whole entry): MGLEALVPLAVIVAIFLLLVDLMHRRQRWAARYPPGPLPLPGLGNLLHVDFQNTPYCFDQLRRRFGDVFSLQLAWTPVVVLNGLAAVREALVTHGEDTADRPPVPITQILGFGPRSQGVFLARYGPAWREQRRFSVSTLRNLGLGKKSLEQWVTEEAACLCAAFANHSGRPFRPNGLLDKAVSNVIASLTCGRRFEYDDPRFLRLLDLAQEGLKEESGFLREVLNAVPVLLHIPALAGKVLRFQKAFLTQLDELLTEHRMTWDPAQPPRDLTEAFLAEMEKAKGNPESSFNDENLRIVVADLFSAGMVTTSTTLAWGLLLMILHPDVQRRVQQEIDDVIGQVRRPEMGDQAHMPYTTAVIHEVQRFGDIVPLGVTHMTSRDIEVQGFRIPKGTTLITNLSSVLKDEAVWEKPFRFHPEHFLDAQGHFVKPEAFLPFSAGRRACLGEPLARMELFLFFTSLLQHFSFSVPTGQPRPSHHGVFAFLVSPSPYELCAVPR

[3] = Stability in human liver microsomes; format: ADME, microsome; conditions: read-out: Stability
CYP1A2 = target: T2, CYP1A2 (Homo sapiens, UniProt P05177); assay: Inhibition of CYP1A2 (unknown origin) at 10 uM relative to control; format: ADME
T2 sequence (P05177 whole entry): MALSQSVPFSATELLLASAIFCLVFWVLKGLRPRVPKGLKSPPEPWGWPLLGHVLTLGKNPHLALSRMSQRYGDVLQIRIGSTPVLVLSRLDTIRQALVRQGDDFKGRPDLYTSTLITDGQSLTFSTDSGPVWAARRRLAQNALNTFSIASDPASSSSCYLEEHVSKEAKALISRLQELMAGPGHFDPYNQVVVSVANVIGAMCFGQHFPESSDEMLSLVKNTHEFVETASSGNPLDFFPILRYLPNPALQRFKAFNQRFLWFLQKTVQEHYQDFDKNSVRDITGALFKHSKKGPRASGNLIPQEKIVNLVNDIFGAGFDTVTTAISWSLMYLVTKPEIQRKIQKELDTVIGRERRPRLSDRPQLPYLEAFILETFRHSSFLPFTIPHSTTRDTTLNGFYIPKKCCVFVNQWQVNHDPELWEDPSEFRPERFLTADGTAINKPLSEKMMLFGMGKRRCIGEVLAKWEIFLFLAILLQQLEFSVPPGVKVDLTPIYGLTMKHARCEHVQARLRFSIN

CYP2C9 = CYP2C9 (Homo sapiens, UniProt P11712); assay: Inhibition of CYP2C9 (unknown origin) at 10 uM relative to control; format: ADME
Chain of CYP2C9 (P11712 whole entry): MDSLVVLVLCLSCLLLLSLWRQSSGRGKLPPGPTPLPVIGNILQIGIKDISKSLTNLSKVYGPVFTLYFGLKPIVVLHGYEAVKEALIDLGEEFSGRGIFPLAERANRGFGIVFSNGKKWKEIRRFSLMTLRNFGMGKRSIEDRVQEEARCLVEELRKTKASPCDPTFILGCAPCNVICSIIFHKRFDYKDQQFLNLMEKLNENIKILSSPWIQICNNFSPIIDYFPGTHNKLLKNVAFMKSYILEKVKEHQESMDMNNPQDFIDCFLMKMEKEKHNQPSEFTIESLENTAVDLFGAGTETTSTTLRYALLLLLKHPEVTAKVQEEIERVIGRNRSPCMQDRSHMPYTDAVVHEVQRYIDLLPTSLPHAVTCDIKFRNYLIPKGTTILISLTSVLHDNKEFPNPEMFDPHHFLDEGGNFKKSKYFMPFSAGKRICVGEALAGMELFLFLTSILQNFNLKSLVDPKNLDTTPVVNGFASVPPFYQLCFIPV

[4] = Stability in mouse liver microsomes; format: ADME, microsome; conditions: read-out: Stability
CYP3A4 = CYP3A4 (Homo sapiens, UniProt P08684); assay: Inhibition of CYP3A4 (unknown origin) at 10 uM relative to control; format: ADME
Chain of CYP3A4 (P08684 whole entry): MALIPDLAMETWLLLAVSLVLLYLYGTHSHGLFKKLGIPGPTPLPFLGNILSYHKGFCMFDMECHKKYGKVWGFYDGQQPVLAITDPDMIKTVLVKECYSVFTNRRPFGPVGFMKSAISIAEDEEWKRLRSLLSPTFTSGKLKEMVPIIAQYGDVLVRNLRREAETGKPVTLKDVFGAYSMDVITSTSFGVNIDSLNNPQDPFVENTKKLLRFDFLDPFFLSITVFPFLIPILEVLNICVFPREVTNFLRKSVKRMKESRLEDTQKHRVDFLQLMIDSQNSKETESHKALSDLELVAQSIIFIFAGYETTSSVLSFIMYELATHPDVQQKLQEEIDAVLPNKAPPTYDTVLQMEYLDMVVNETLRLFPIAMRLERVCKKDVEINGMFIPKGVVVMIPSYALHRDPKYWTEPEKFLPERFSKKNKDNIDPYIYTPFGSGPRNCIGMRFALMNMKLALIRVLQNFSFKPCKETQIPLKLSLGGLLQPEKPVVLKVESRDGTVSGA

[5] = Solubility of the compound in phosphate buffered saline at pH 7.4; format: physicochemical; conditions: buffer
[6] = compound: CC(=O)Nc1cccc(Nc2ncc3ccccc3n2)c1; assay: ATP-competitive inhibition of full length recombinant human N-terminal GST-tagged ASK1 expressed in baculovirus expression system assessed as Km for substrate at 2 uM using MKK6 as substrate by Lineweaver-burk plot analysis (reference value: 6.08 +/- 0.4093 10^-6 M)
[7] = compound: CC(=O)Nc1cccc(Nc2ncc3ccccc3n2)c1; assay: ATP-competitive inhibition of full length recombinant human N-terminal GST-tagged ASK1 expressed in baculovirus expression system assessed as Km for substrate at 0.5 uM using MKK6 as substrate by Lineweaver-burk plot analysis (reference value: 6.08 +/- 0.4093 10^-6 M)
[8] = compound: CC(=O)Nc1cccc(Nc2ncc3ccccc3n2)c1; assay: ATP-competitive inhibition of full length recombinant human N-terminal GST-tagged ASK1 expressed in baculovirus expression system assessed as Km for substrate at 1 uM using MKK6 as substrate by Lineweaver-burk plot analysis (reference value: 6.08 +/- 0.4093 10^-6 M)

| Molecule | IC50 [1] [µM] | further results |
| --- | --- | --- |
| Fc1ccc(Nc2ncc3ccccc3n2)cc1 | > 10 | – |
| CC(=O)Nc1cccc(Nc2ncc3cc(-c4cnn(C)c4)ccc3n2)c1 | > 10 | – |
| CC(C)(C)C(=O)N(c1ccccc1)c1cccc(Nc2ncc3cc(-c4cn[nH]c4)ccc3n2)c1 | > 10 | – |
| Cn1cc(-c2ccc3nc(Nc4ccccc4)ncc3c2)cn1 | > 10 | – |
| CC(=O)Nc1cccc(Nc2ncc3cc(-c4cn[nH]c4)ccc3n2)c1 | 0.2 | half-life [2]: 4 min; inhibition at 10 µM (CYP2D6): 52%; half-life [3]: 42 min; inhibition at 10 µM (CYP1A2): 49%; inhibition at 10 µM (CYP2C9): 98%; half-life [4]: 2 min; inhibition at 10 µM (CYP3A4): 88%; solubility [5]: 10 µM (≈ 3.44 µg/mL) |
| CC(=O)Nc1cccc(Nc2ncc3cc(-c4cccc(N)c4)ccc3n2)c1 | > 10 | – |
| Nc1cccc(-c2ccc3nc(Nc4ccccc4)ncc3c2)c1 | > 10 | – |
| CC(=O)Nc1cccc(Nc2ncc3cc(Br)ccc3n2)c1 | > 10 | – |
| Clc1cccc(Nc2ncc3ccccc3n2)c1 | > 10 | – |
| CN(C)c1cccc(Nc2nccc(NCCOc3ccccc3)n2)c1 | 2 | – |
| Nc1cccc(Nc2ncc3cc(-c4cn[nH]c4)ccc3n2)c1 | 0.6 | half-life [2]: 3 min; inhibition at 10 µM (CYP2D6): 56%; half-life [3]: 29 min; inhibition at 10 µM (CYP1A2): 67%; inhibition at 10 µM (CYP2C9): 93%; half-life [4]: 2 min; inhibition at 10 µM (CYP3A4): 52%; solubility [5]: 17 µM (≈ 5.14 µg/mL) |
| Fc1ccc(Nc2ncc3cc(Br)ccc3n2)cc1 | > 10 | – |
| Clc1cccc(Nc2ncnc3[nH]cnc23)c1 | > 10 | – |
| c1ccc(Nc2ncc3ccccc3n2)cc1 | > 10 | – |
| CC(C)(C)C(=O)N(c1ccccc1)c1cccc(Nc2ncc3cc(Br)ccc3n2)c1 | > 10 | – |
| Nc1cccc(Nc2ncc3ccccc3n2)c1 | > 10 | – |
| CN(C)c1cccc(Nc2ncnc3[nH]cnc23)c1 | > 10 | – |
| c1ccc(Nc2ncc3cc(-c4cn[nH]c4)ccc3n2)cc1 | > 10 | – |
| Cn1cc(-c2ccc3nc(Nc4cccc(N(C(=O)C(C)(C)C)c5ccccc5)c4)ncc3c2)cn1 | > 10 | – |
| Brc1ccc2nc(Nc3ccccc3)ncc2c1 | > 10 | – |
| Nc1cccc(Nc2ncc3cc(-c4cccc(N)c4)ccc3n2)c1 | > 10 | – |
| Fc1ccc(Nc2ncnc3[nH]cnc23)cc1 | > 10 | – |
| CC(=O)Nc1cccc(Nc2ncnc3[nH]cnc23)c1 | > 10 | – |
| Nc1cccc(Nc2ncc3cc(Br)ccc3n2)c1 | > 10 | – |
| Cn1cc(-c2ccc3nc(Nc4cccc(N)c4)ncc3c2)cn1 | > 10 | – |
| c1ccc(Nc2ncnc3nc[nH]c23)cc1 | > 10 | – |
| Mitogen-activated protein kinase kinase kinase 5 (Homo sapiens), Q99683 (protein) MSTEADEGITFSVPPFAPSGFCTIPEGGICRRGGAAAVGEGEEHQLPPPPPGSFWNVESAAAPGIGCPAATSSSSATRGRGSSVGGGSRRTTVAYVINEASQGQLVVAESEALQSLREACETVGATLETLHFGKLDFGETTVLDRFYNADIAVVEMSDAFRQPSLFYHLGVRESFSMANNIILYCDTNSDSLQSLKEIICQKNTMCTGNYTFVPYMITPHNKVYCCDSSFMKGLTELMQPNFELLLGPICLPLVDRFIQLLKVAQASSSQYFRESILNDIRKARNLYTGKELAAELARIRQRVDNIEVLTADIVINLLLSYRDIQDYDSIVKLVETLEKLPTFDLASHHHVKFHYAFALNRRNLPGDRAKALDIMIPMVQSEGQVASDMYCLVGRIYKDMFLDSNFTDTESRDHGASWFKKAFESEPTLQSGINYAVLLLAAGHQFESSFELRKVGVKLSSLLGKKGNLEKLQSYWEVGFFLGASVLANDHMRVIQASEKLFKLKTPAWYLKSIVETILIYKHFVKLTTEQPVAKQELVDFWMDFLVEATKTDVTVVRFPVLILEPTKIYQPSYLSINNEVEEKTISIWHVLPDDKKGIHEWNFSASSVRGVSISKFEERCCFLYVLHNSDDFQIYFCTELHCKKFFEMVNTITEEKGRSTEEGDCESDLLEYDYEYDENGDRVVLGKGTYGIVYAGRDLSNQVRIAIKEIPERDSRYSQPLHEEIALHKHLKHKNIVQYLGSFSENGFIKIFMEQVPGGSLSALLRSKWGPLKDNEQTIGFYTKQILEGLKYLHDNQIVHRDIKGDNVLINTYSGVLKISDFGTSKRLAGINPCTETFTGTLQYMAPEIIDKGPRGYGKAADIWSLGCTIIEMATGKPPFYELGEPQAAMFKVGMFKVHPEIPESMSAEAKAFILKCFEPDPDKRACANDLLVDEFLKVSSKKKKTQPKLSALSAGSNEYLRSISLPVPVLVEDTSSSSEYGSVSPDTELKVDPFSFKTRAKSCGERDVKGIRTLFLGIPDENFEDHSAPPSPEEKDSGFFMLRKDSERRATLHRILTEDQDKIVRNLMESLAQGAEEPKLKWEHITTLIASLREFVRSTDRKIIATTLSKLKLELDFDSHGISQVQVVLFGFQDAVNKVLRNHNIKPHWMFALDSIIRKAVQTAITILVPELRPHFSLASESDTADQEDLDVEDDHEEQPSNQTVRRPQAVIEDAVATSGVSTLSSTVSHDSQSAHRSLNVQLGRMKIETNRLLEELVRKEKELQALLHRAIEEKDQEIKHLKLKSQPIEIPELPVFHLNSSGTNTEDSELTDWLRVNGADEDTISRFLAEDYTLLDVLYYVTRDDLKCLRLRGGMLCTLWKAIIDFRNKQT | – | Km [6]: 9.3 µM; Km [7]: 7.01 µM; Km [8]: 7.79 µM |
